What was measured:
[1] = tested on: ulcers induced by indomethacin and by stress; conditions: cited from earlier work
[2] = tested on: patients with osteoarthritis and/or rheumatoid arthritis; assay: 12-week double-blinded, randomized, dose-ranging, placebo-controlled phase 2 trial of cobiprostone with naproxen; assay type: in vivo, human; conditions: for Drug-related gastrointestinal adverse event rate / Median number of days in the treatment period / Related adverse event: diarrhea / Related adverse event: gastritis / Related adverse event: nausea / Related overall adverse event rate / Withdrawal rate from the trial due to an adverse event / Retention rate at Week 8 / Retention rate at Week 12: naproxen 500 mg twice a day
Protocol: A total of 124 patients with osteoarthritis and/or rheumatoid arthritis were enrolled in 12-week, double-blinded, randomized, dose-ranging and placebo-controlled phase 2 trial. All patients in the trial received 500 mg of naproxen twice a day. There were four treatment cohorts: one cohort received placebo while the other three cohorts received 18 mcg of cobiprostone either once, twice or three times a day (daily totals of 18, 36 or 54 mcg, respectively).
Retention rate and withdrawal rate were evaluated by the following definitions.
Retention rate: The number of intent-to-treat subjects that remained in the trial at a specified week.
Withdrawal Rate: The number of randomized subjects that discontinued the trial. The reasons for discontinuation were:
b. Discontinued due to ulcer
The withdrawal rate can be expressed/calculated for a single reason such as adverse events, or for any combination of the discontinuation reasons.

In the case of `CC[C@H](C)CC(F)(F)[C@@]1(O)CC[C@H]2[C@@H](CC(=O)[C@@H]2CCCCCCC(=O)O)O1` [cobiprostone, 7{(2R,4aR,5R,7aR)-2-[(3S)-1,1-difluoro-3-methylpentyl]-2-hydroxy-6-oxooctahydrocyclopenta[b]pyran-5-yl}heptanoic acid], the “Formation of ulcers induced by indomethacin” value ([1]; animal studies, indomethacin-induced ulcers) is listed as “protected against formation of ulcers”, the “Formation of ulcers induced by stress” value ([1]; animal studies, stress-induced ulcers) is listed as “protected against formation of ulcers” and the “Safety in animal studies” value [1] is listed as “acceptable safety”. The “Retention rates at Week 12 compared to naproxen with placebo” value ([2]; Week 12, 18, 36 and 54 mcg/day, dose-dependent increase) was “statistically significant”, the “Drug-related gastrointestinal adverse event rate” value ([2]; cobiprostone 18 mcg/day) was 60.0% and the “Median number of days in the treatment period” value (from here on “Median number of days”) ([2]; cobiprostone 18 mcg/day) was 60.0 days. For the same molecule, the “Related adverse event: diarrhea” value ([2]; cobiprostone 18 mcg/day) was 13.3%, the “Related adverse event: gastritis” value ([2]; cobiprostone 18 mcg/day) was 13.3% and the “Related adverse event: nausea” value ([2]; cobiprostone 18 mcg/day) was 10.0%. The “Related overall adverse event rate” value ([2]; cobiprostone 18 mcg/day) was 60.0%, the “Withdrawal rate from the trial due to an adverse event” value (from here on “Withdrawal rate from the trial due”) ([2]; cobiprostone 18 mcg/day) was 13.3% and the “Retention rate at Week 8” value ([2]; cobiprostone 18 mcg/day) was 67%. For the same molecule, the “Retention rate at Week 12” value ([2]; cobiprostone 18 mcg/day, Week 12) was 47%, the “Drug-related gastrointestinal adverse event rate” value ([2]; cobiprostone 36 mcg/day) was 67.7% and the “Median number of days” value ([2]; cobiprostone 36 mcg/day) was 82.0 days. The “Related adverse event: diarrhea” value ([2]; cobiprostone 36 mcg/day) was 32.3%, the “Related adverse event: gastritis” value ([2]; cobiprostone 36 mcg/day) was 6.5% and the “Related adverse event: nausea” value ([2]; cobiprostone 36 mcg/day) was 16.1%. For the same molecule, the “Related overall adverse event rate” value ([2]; cobiprostone 36 mcg/day) was 71.0%, the “Withdrawal rate from the trial due” value ([2]; cobiprostone 36 mcg/day) was 16.1% and the “Retention rate at Week 8” value ([2]; cobiprostone 36 mcg/day) was 66%. For the same molecule, the “Retention rate at Week 12” value ([2]; cobiprostone 36 mcg/day, Week 12) was 52%, the “Drug-related gastrointestinal adverse event rate” value ([2]; cobiprostone 54 mcg/day) was 67.7% and the “Median number of days” value ([2]; cobiprostone 54 mcg/day) was 83.0 days. For the same molecule, the “Related adverse event: diarrhea” value ([2]; cobiprostone 54 mcg/day) was 35.5%, the “Related adverse event: gastritis” value ([2]; cobiprostone 54 mcg/day) was 9.7% and the “Related adverse event: nausea” value ([2]; cobiprostone 54 mcg/day) was 16.1%. The “Related overall adverse event rate” value ([2]; cobiprostone 54 mcg/day) was 67.7%, the “Withdrawal rate from the trial due” value ([2]; cobiprostone 54 mcg/day) was 16.1% and the “Retention rate at Week 8” value ([2]; cobiprostone 54 mcg/day) was 90%. The “Retention rate at Week 12” value ([2]; cobiprostone 54 mcg/day, Week 12) was 77% and the “Tolerability in patients receiving NSAID therapy” value ([2]; overall, 18-54 mcg/day with naproxen 500 mg twice a day) was “well tolerated”.

— patent US20110034424A1, “METHOD FOR THE LONG TERM NSAID USE” (SUCAMPO AG, priority 2009, published 2011)
